Data set [1] in a line: Particle size of PTEN ASO-LNP. Particulars: PTEN ASO lipid particles; aminolipid 50 / DSPC 20 / cholesterol 28.5 / monostearyl PEG 1.5 mol %; lipid/nucleic acid 11.8 wt/wt. In kind it is physicochemical. The procedure:
The first lipid, phospholipid, cholesterol, and polyethylene glycol lipid (PEG lipid) shown in Table 3 were dissolved in ethanol at the molar ratio shown in Table 3 such that the total lipid concentration was 20 mmol/L to obtain the oil phase.
As the neutral lipid, 1,2-Distearoyl-sn-glycero-3-phosphocholine (DSPC, product name: COATSOME MC-8080, NOF corporation) was used. As the cholesterol, cholesterol (product name: Cholesterol HP; Nippon Seika Co., Ltd.) was used. As the PEG lipid, monostearyl PEG (product name: Polyethylene Glycol Monostearate (4E.O.), FUJIFILM Wako Pure Chemical Corporation) was used.
5 mg of PTEN ASO was dissolved in 1 mL of sterile water and diluted with a 10 mmol/L acetate buffer having a pH of 4 such that the nucleic acid concentration was 54.6 μmol/L, to obtain a water phase. Then the water phase and the oil phase were mixed together with a micromixer (see JP5288254B) using a syringe pump such that the volume ratio of water phase:oil phase was 3:1, and the mixed solution was two-fold diluted with a phosphate buffered physiological saline (PBS), thereby obtaining a dispersion of nucleic acid lipid particles.
The particle size and polydispersion index of the lipid particles were measured by 10-fold diluting the dispersion liquid of lipid particle with phosphate buffered physiological saline (PBS) using Zeta-potential & Particle size Analyzer ELS-Z2 (Otsuka Electronics Co., Ltd.).

A further data set has as its system PTEN mRNA. Put plainly: PTEN mRNA knockdown in vitro (quantification of PTEN mRNA by PCR). In kind it is cell-based, human. The note with it: SH-SY5Y cells; PTEN ASO lipid particles of Table 3, ASO 500 nmol/L, exposure 24 hours; PTEN mRNA by ΔΔCt method. An excerpt: An antisense oligonucleotide nucleic acid (PTEN ASO) for a PTEN protein was purchased from Hokkaido System Science Co., Ltd. PTEN ASO is an oligonucleotide consisting of 20 bases, in which nucleotides are connected by a phosphodiester bond, and the sequence of which is described below.
In an in vitro test using SH-SY5Y cells (American Type Culture Collection), E-MEM (gibco), Ham's F12 (gibco), FBS (gibco), Penicillin-streptomycin (gibco), and NEAA (FUJIFILM Wako Pure Chemical Corporation) were mixed at a ratio of 41.5:41.5:15:1:1 and the mixture was used as a culture medium.
The measurement of PTEN protein mRNA was performed according to the protocol of TaqMan (register trademark) Fast Advanced Cells-to-CT™ Kit (Thermo Fisher Scientific). To A431 cells or SH-SY5Y cells, a dispersion liquid of nucleic acid lipid particles prepared to have a final concentration of 500 nmol/L as an ASO concentration, Naked ASO or PBS was added. After exposure for 24 hours under the control of 37° C. and 5% CO2, the culture supernatant was removed, and the mixture was washed once with PBS at 4° C. After removing the PBS, a lysis solution was added at 50 μL/well, and the mixture was stood still for 5 minutes at room temperature to obtain a cell lysate. For the cell lysate, TaqMan (register trademark) Fast Advanced Cells-to-CT™ Kit (Thermo Fisher scientific), and Hs02621230_s1, FAM/MGB (Thermo Fisher Scientific) and Human GAPDH Endogenous Control (VIC (register trademark)/MGB, Thermo Fisher Scientific) as a PCR reaction reagent were used to perform reverse transcription and PCR reaction.
The PTEN mRNA level of each sample was calculated by the ΔΔCt method. Specifically, the Ct value of GAPDH is subtracted from the Ct value of PTEN to calculate the ΔCt value of each sample. The average value of the ΔCt values of the PBS treatment group was subtracted from the calculated ΔCt value to calculate the ΔΔCt value. For each ΔΔCt value, a relative value with respect to the Naked ASO to be compared was taken as a PTEN mRNA relative value.

In the next data set the test system is human EPO. As to the kind of experiment: Measurement of EPO enzyme activity (EPO protein in blood plasma of mice after intravenous administration of EPO mRNA lipid particles). Format: in vivo. The note with it: C57BL/6J mice, tail-vein i.v., mRNA 0.1 mg/kg, plasma 20 to 24 hours; aminolipid 50 / DOPE 10 / cholesterol 38.5 / DMG-PEG2000 1.5 mol %; lipid/nucleic acid 64 wt/wt. Summed up: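 C57BL/6J mice received EPO mRNA (5moU) in lipid particles (ionizable lipid, DSPC/DOPE/DOPC, cholesterol, DMG-PEG2000) by tail-vein injection at 0.1 mg/kg mRNA. Plasma taken 20–24 h later; human EPO measured by ELISA and expressed relative to a comparative formulation set as 1.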

The structures appear in SMILES notation.

For the compound `CCCCCCC(CCCC)COC(=O)CCCC(CCCCCC)OC(=O)OCCN(CCOC(=O)OC(CCCCCC)CCCC(=O)OCC(CCCC)CCCCCC)CCN(CC)CC` (stereo not drawn) [Example 8, Bis(2-butyloctyl) 11-(2-(diethylamino)ethyl)-5,17-dihexyl-7,15-dioxo-6,8,14,16-tetraoxa-11-azahenicosanedioate], in data set [1], the Particle size worked out at 87.7 nm. For the same compound, in the data set on PTEN mRNA, the “PTEN knockdown relative value with respect to Naked ASO” value was determined as 0.65. The “Relative amount of EPO protein (with respect to Comparative Example 1)” value in the data set on human EPO came out at 2.27.
The like results for `CCCCCCC(CCCC(=O)OCC(CCCCC)CCCCC)OC(=O)OCCN(CCCN(CC)CC)CCOC(=O)OC(CCCCCC)CCCC(=O)OCC(CCCCC)CCCCC` (stereo not drawn) [Example 13, Bis(2-pentylheptyl) 11-(3-(diethylamino)propyl)-5,17-dihexyl-7,15-dioxo-6,8,14,16-tetraoxa-11-azahenicosanedio ate] were, in that order, 60.4 nm, 0.34 and 5.09.
The like results for `CCCCCC(CCCCC)COC(=O)CCCC(CCC)OC(=O)OCCN(CCOC(=O)OC(CCC)CCCC(=O)OCC(CCCCC)CCCCC)CCN(CC)CC` (stereo not drawn) [Example 21, Bis(2-pentylheptyl) 11-(2-(diethylamino)ethyl)-7,15-dioxo-5,17-dipropyl-6,8,14,16-tetraoxa-11-azahenicosanedioate] were, in that order, 81.5 nm, 0.33 and 4.66.
For `CCCCCCCOC(=O)CCCC(CCCC(=O)OCCCCCCC)OC(=O)OCCN(CCOC(=O)OC(CCCC(=O)OCCCCCCC)CCCC(=O)OCCCCCCC)CCN(CC)CC` [Example 29, diheptyl 11-(2-(diethylamino)ethyl)-5,17-bis(4-(heptyloxy)-4-oxobutyl)-7,15-dioxo-6,8,14,16-tetraoxa-11-azahenicosanedioate], in data set [1], the Particle size is reported as 104.3 nm. Moreover, in the data set with PTEN mRNA, the “PTEN knockdown relative value with respect to Naked ASO” value amounted to 0.80. Moreover, in the data set with human EPO, the “Relative amount of EPO protein (with respect to Comparative Example 1)” value was determined as 9.90.
The like results for `CCCCCCCOC(=O)CCCC(CCCC(=O)OCCCCCCC)OC(=O)OCCN(CCOC(=O)OC(CCCC(=O)OCCCCCC)CCCC(=O)OCCCCCC)CCN(CC)CC` [Example 37, 1-Heptyl 21-hexyl 11-(2-(diethylamino)ethyl)-5-(4-(heptyloxy)-4-oxobutyl)-17-(4-(hexyloxy)-4-oxobutyl)-7,15-d ioxo-6,8,14,16-tetraoxa-11-azahenicosanedioate] were, in that order, 58.6 nm, 0.83 and 5.18.

The values are drawn from patent US20240124389A1, “COMPOUND OR SALT THEREOF, LIPID PARTICLES, AND PHARMACEUTICAL COMPOSITION” (FUJIFILM Corporation, priority 2021, published 2024).
